Like-named read-outs stand apart in the source and are kept apart here.
Experiments:
[1] = tested on: HCT116 colon adenocarcinoma; test: Cytotoxicity assay (MTT), 6 days; assay type: cell-based, human; settings: 6 days of treatment, read-out: Toxicity 6d (IC 50, μM) HCT116
Text: (§1) Four human tumoral cell lines, namely HCT116 colon adenocarcinoma, H460 lung carcinoma, MCF-7 and MDA-MB-231 breast carcinoma cell lines, and three immortalized but non tumorigenic cell lines, namely NIH3T3 mouse fibroblasts and human breast-derived MCF10-A and MRC-5 were purchased at ATCC and cultured according to their recommendations. In order to determine the cytotoxicity associated with one compound, a microculture tetrazolium assay (MTT), as described by Carmichael et al (Cancer Res, 1996) with modifications, was used. Briefly, 5.10^3 or 2.10^4 cells were seeded per well in 24-well plates 24 hours before drug addition. Cells were treated with 0, 1, 10, 17.5, 25 and 50 μM of compound solubilized in DMSO, adjusting the total volume of DMSO (Dimethylsulfoxide) to 1%. Forty-eight hours or 6 days after treatment, the medium was replaced by PBS containing 0.5 mg/ml MTT (Sigma) and cells were incubated for 3 more hours at 37° C. before solubilization of formazan crystals in 100% DMSO. Absorbance was measured using a spectrophotometer at a wavelength of 550 nm. Cell surviving fraction and 50% inhibitory concentration were calculated. All assays were performed in triplicate.

MDA-MB-231 cells [2] = test: Migration assay (Boyden chamber, non-coated filters); assay type: cell-based, human; settings: MDA-MB-231, Boyden chamber
Protocol: (§2) One day after seeding, 10^6 MDA-MB-231 cells were treated overnight with different concentrations of compounds (1, 10, 17.5, 25 and 50 μM). Cells were collected with Versene (Invitrogen), counted with trypan blue exclusion, rinsed twice in serum-free medium containing 0.1% BSA and resuspended in serum-free medium containing 0.1% BSA plus the appropriate concentration of compound. 10^5 treated cells were placed in the upper chamber. Medium containing 10% of FBS plus the appropriate concentration of compound was placed in the lower chamber as a chemoattractant. The Boyden chamber was incubated 6 hours at 37° C. before the cells were fixed and stained with Diff-Quick (Dade-Berhing). Cells on the upper part of the filters were removed using a cotton swab. Cells on the underside of the filters were visualised and counted under light microscope.
The migration assay was performed the same way, using non-coated filters.

MDA-MB-231 cells [3] = test: Matrigel invasion assay (Boyden chamber); assay type: cell-based, human; settings: MDA-MB-231, Boyden chamber, matrigel
Protocol: Chemoinvasion assay was performed in Boyden chamber as described by Albini et al (Cancer Res, 1987) with some modifications. Polycarbonate membranes with 8 μm pores were coated with matrigel (125 μg/cm^2) at room temperature for 48 h. Two hours before experiments, the matrix was […] with serum-free medium containing 0.1% BSA.
as §2

MRC-5 = test: Cytotoxicity assay (MTT), 6 days; assay type: cell-based; settings: Homo sapiens, MRC5, 144 h, 6 days of treatment, read-out: Toxicity 6d (IC 50, μM) MRC-5
Text: as §1

MCF-7 breast carcinoma = test: Cytotoxicity assay (MTT), 6 days; assay type: cell-based; settings: Homo sapiens, MCF7, 144 h, 6 days of treatment, read-out: Toxicity 6d (IC 50, μM) MCF7
Text: as §1

H460 lung carcinoma = test: Cytotoxicity assay (MTT), 6 days; assay type: cell-based; settings: Homo sapiens, NCI-H460, 144 h, 6 days of treatment, read-out: Toxicity 6d (IC 50, μM) H460
Text: as §1

MCF10-A = test: Cytotoxicity assay (MTT), 6 days; assay type: cell-based; settings: Homo sapiens, MCF-10A, 144 h, 6 days of treatment, read-out: Toxicity 6d (IC 50, μM) MCF10-A
Text: as §1

[4] = tested on: MDA-MB-231 breast carcinoma; test: Cytotoxicity assay (MTT), 6 days; assay type: cell-based; settings: Homo sapiens, MDA-MB-231, 144 h, 6 days of treatment, read-out: Toxicity 6d (IC 50, μM) MDA231
Text: as §1

NIH3T3 mouse fibroblasts = test: Cytotoxicity assay (MTT), 6 days; assay type: cell-based; settings: NIH3T3, 144 h, 6 days of treatment, read-out: Toxicity 6d (IC 50, μM) NIH3T3
Text: as §1

NIH3T3 cells = test: Colony formation assay with constitutively activated Ras (RasV12) and Rac (RacV12); assay type: cell-based, mouse; design: key to Colony formation: −: no effect of the compound was observed; +: an effect of the compound was observed
Protocol: (§3) The impact of the compounds on Ras and Rac signaling pathways was analysed with two reporter systems described by Imler (Nature 1988) and Lin (Science, 1995) respectively on one hand, and by a colony formation assay in the presence of constitutively activated Ras (RasV12) and Rac (RacV12) on the other hand. For this latter experiment, fifty percent confluent NIH3T3 cells in a 10 cm diameter petri dish were transfected with 0.5 μg pSV2-RasV12 or 0.5 μg pEXV RacV12 plasmids plus 100 ng of pSV2-neomycin plasmid using Lipofectamine-Plus reagent (Invitrogen) according to the manufacturer's instructions. Forty-eight hours later, cells were trypsinised, splitted to ⅓, and incubated in the presence of complete medium supplemented with 400 μg/ml geneticin (Invitrogen) and different doses of compound (1, 10, 17.5, 25 and 50 μM) until emerging resistant clones appear (2-3 weeks). The medium was renewed every 3 days. Colonies with a minimum of 50 cells were counted after staining with Fuschin 2%.

cell architecture = test: Cell architecture modification, phase contrast; assay type: cell-based; design: key: −: no effect of the compound was observed; +: an effect of the compound was observed
NIH3T3 = test: Cytoskeleton analysis, actin staining (FITC-phalloidin); assay type: cell-based, mouse
Protocol: Since major rearrangements of cytoskeleton are observed in tumor cells and since the small GTPases are known to regulate these events, analysis of actin cytoskeleton was performed. Subconfluent cells seeded onto coverslips were treated with different concentration of compound (1, 10, 17.5, 25 and 50 μM) or vehicle for 24 h, before being fixed in 4% formaldehyde for 15 min., permeabilized in 0.2% Triton X100 for 5 minutes and incubated in PowerBlock (Biogenex) for 10 min. Actin filaments were stained with 0.5 μg/ml fluorescein isothiocyanate (FITC)-labelled phalloidin for 1 hour. Analysis was performed using an inverted fluorescent microscope.

Ras = test: Ras-dependant signaling pathway analysis (reporter system); assay type: cell-based; design: key: −: no effect of the compound was observed; +: an effect of the compound was observed
Protocol: as §3

HCT116 cells = test: Anchorage-independent growth assay (soft agar / Matrigel); assay type: cell-based, human; settings: Homo sapiens, HCT-116, 168 h; HCT116, 3-dimensional growth, 1 week
Protocol: In order to evaluate the effect of the compounds on the capacity of tumor cells to grow without anchorage, HCT116 cells were seeded either in agar or in Matrigel (BD, France). For 3D growth experiment in soft agar in 24-well plates, 5.10^3 HCT116 cells were resuspended in 250 μl of complete medium containing 0.3% soft-agar (Difco) and different concentrations of compound (0.1, 1, 10, 17.5, 25 and 50 μM). Cells were then poured on a solidified layer of medium containing 0.5% of soft-agar plus the compound at the same concentration than in the upper layer. Cells were incubated at 37° C. for 1 week before they were analysed using a phase contrast microscope (Nikon). For 3D growth experiment in Matrigel, 10^4 HCT116 cells were resuspended in 300 μl of complete medium containing 5 mg/ml Matrigel (BD, France) and different concentrations of compound (0.1, 1, 10, 17.5, 25 and 50 μM), and poured in 24-well plates. After solidification at 37° C. for 15 min., complete medium containing the compound was added to each well. Cells were incubated for 1 week before they were collected using Matrisperse (BD, France) according to the manufacturer's instructions. After recovery, alive cells were counted with trypan blue exclusion.

HCT116 = test: Cell viability assay (MTT), Example 32; assay type: cell-based, human; settings: for IC50: Homo sapiens, HCT-116, 144 h, day 6, 10% FBS
Protocol: FIG. 7: Antiproliferative effect of compounds on HCT116 (top) and MDA-MB-231 (bottom) cell lines measured by MTT viability assay. 2.5 10^3 (HCT116) or 7.5 10^3 (MDA-MB-231) cells were seeded in 48-well plates in growth medium containing 10% FBS, with or without various concentrations of test compounds. Cell cultures were fed every 3 days with the appropriate media. Cell viability was determined on day 6. Data were analyzed and IC50s were calculated from the dose-response curves using GraphPad Prism.
In order to determine one compound effect on cell viability, microculture tetrazolium assay (MTT) was performed as described by Carmichael et al., (1996) with modifications. Four human tumoral cell lines, namely HCT116 colon adenocarcinoma, H460 lung carcinoma, MCF-7 and MDA-MB-231 breast carcinoma cell lines, and 3 immortalized but non tumorigenic cell lines, namely NIH3T3 mouse fibroblasts and human breast-derived MCF10-A and human lung-derived MRC-5 were purchased at ATCC and cultured according to their recommendations. Briefly, 2.5 10^3 to 2 10^4 cells per well were seeded in 48-well plates 24 hours before drug addition. Cells were treated with 0 to 200 μM (11 concentrations) of compound solubilized in DMSO, adjusting the final concentration of DMSO to 1% in the well. Six days after treatment, the medium was replaced by PBS containing 0.5 mg/ml MTT (Sigma) and cells were incubated for 1-3 hours at 37° C. before solubilization of formazan crystals in 100% DMSO. Absorbance was measured using a spectrophotometer at a wavelength of 550 nm. Data was analyzed using the GraphPad Prism software (GraphPad Software, Inc., San Diego, USA), and IC50 (dose leading to 50% cell death) was calculated from the dose-response curves.

In the case of C/C=C/c1oc(CO)cc(=O)c1OCCCCCOc1ccccc1CCC [EH9301, (E)-6-(Hydroxymethyl)-2-(propen-1-yl)-3-[5-(2-propylphenyloxy)pentyloxy]-4H-pyran-4-one], the IC50 ([1]; Homo sapiens, HCT-116, 144 h) is reported as 20 µM, the Migration (MDA-MB-231 cells [2]) is reported as “no effect” and the Invasion (MDA-MB-231 cells [3]) is reported as “No effect”. For the same compound, the IC50 (MRC-5) was 35 µM, the IC50 (MCF-7 breast carcinoma) was 20 µM and the IC50 (H460 lung carcinoma) was 25 µM. The IC50 (MCF10-A) was > 50 µM, the IC50 [4] was 25 µM and the IC50 (NIH3T3 mouse fibroblasts) was 50 µM. For the same compound, the Colony formation (NIH3T3 cells) was “−” and the “Cell architecture modification phase contrast” value (cell architecture) was “−”.
With O=c1cc(CO)occ1OCCCCCOc1ccc(Cl)cc1 [EH15500, 5-[5-(4-Chlorophenyloxy)pentyloxy]-2-(hydroxymethyl)-4H-pyran-4-one] the IC50 ([1]; Homo sapiens, HCT-116, 144 h) was 50 µM, the “general morphology of NIH3T3 cells, as detected by β-actin staining” value (NIH3T3) was “affected” and the “Cell architecture modification actin staining (R: ruffles; FC: focal complexes) NIH3T3” value (NIH3T3; 24 h treatment) was “cell destructuration”. The IC50 (MCF-7 breast carcinoma) was > 50 µM, the IC50 (H460 lung carcinoma) was 35 µM and the IC50 [4] was 15 µM. The melting point was 95 to 97 °C, the Colony formation (NIH3T3 cells) was “−” and the “Small GTPases activities Ras” value (Ras) was “−”. For the same compound, the “Cell architecture modification phase contrast” value (cell architecture) was “+”.
With C/C=C/c1oc(CO)cc(=O)c1OCCCCCOc1cccc(Cl)c1 [EH16201, (E)-3-[5-(3-Chlorophenyloxy)pentyloxy]-6-(hydroxymethyl)-2-(propen-1-yl)-4H-pyran-4-one] the IC50 ([1]; Homo sapiens, HCT-116, 144 h) was 50 µM, the IC50 (HCT116 cells) was 12.5 µM and the IC50 (MCF-7 breast carcinoma) was 25 µM. The IC50 (H460 lung carcinoma) was 20 µM, the IC50 [4] was > 50 µM and the IC50 (NIH3T3 mouse fibroblasts) was 25 µM.
For C/C=C/c1oc(CO)cc(=O)c1OCCCCCOc1ccc(Cl)cc1 [EH26101, (E)-3-[5-(4-Chlorophenyloxy)pentyloxy]-6-(hydroxymethyl)-2(propen-1-yl)-4H-pyran-4-one], the IC50 ([1]; Homo sapiens, HCT-116, 144 h) was > 50 µM, the IC50 (HCT116 cells) was 50 µM and the IC50 (MCF-7 breast carcinoma) was > 50 µM. The IC50 (H460 lung carcinoma) was 35 µM, the IC50 [4] was 40 to 45 µM and the IC50 (NIH3T3 mouse fibroblasts) was 1 to 5 µM.
In the case of O=C(NCc1ccccc1)c1cc(=O)c(OCCCCCOc2ccc(Cl)cc2)co1 [EH28900, N-Benzyl-5-[5-(4-Chlorophenyloxy)pentyloxy]-4-oxo-4H-pyran-2-carboxamide], the IC50 [1] is reported as 25 µM, the IC50 ([1]; Homo sapiens, HCT-116, 144 h) is reported as ≤ 15 µM and the IC50 (MCF-7 breast carcinoma) is reported as 20 µM. For the same compound, the IC50 (H460 lung carcinoma) was 10 µM, the IC50 (MCF10-A) was 50 µM and the IC50 [4] was 5 µM. The IC50 (NIH3T3 mouse fibroblasts) was 0.5 µM, the “Small GTPases activities Ras” value (Ras) was “−” and the “Cell architecture modification phase contrast” value (cell architecture) was “−”.
With C/C=C/c1oc(CO)cc(=O)c1OCCCCCOc1ccc(Cl)c(Cl)c1 [EH30101] the IC50 ([1]; Homo sapiens, HCT-116, 144 h) was 50 µM, the IC50 (HCT116 cells) was 7.5 µM and the IC50 (MCF-7 breast carcinoma) was 45 µM. It also gave an IC50 (H460 lung carcinoma) of 35 µM, an IC50 [4] of 30 to 35 µM and an IC50 (NIH3T3 mouse fibroblasts) of 0.1 to 0.5 µM.
In the case of O=c1cc(CO)occ1OCCCCCn1cnc2c(Cl)ncnc21 [EHT 0248, 5-[5-(6-Chloro-purin-9-yl)-pentyloxy]-2-hydroxymethyl-4H-pyran-4-one], the IC50 (HCT116) is reported as > 100 µM.
C/C=C/c1oc(CO)cc(=O)c1OCCCCCOc1ccc(Cl)cc1CCC [EHT 1405, (E)-3-[5-(4-chloro-2-propyl-phenoxy)-pentyloxy]-6-hydroxymethyl-2-propenyl-4H-pyran-4-one] gave an IC50 (HCT116) of 4 µM.
In the case of O=C(NC1CCCCC1)OCc1cc(=O)c(OCCCCCn2ccc3ccccc32)co1 [EHT 6231, Cyclohexyl-carbamic acid 5-(5-indol-1-yl-pentyloxy)-4-oxo-4H-pyran-2-ylmethyl ester], the “IC50 fold higher as compared to compound EHT 7395” value (HCT116; MTT, HCT116) is reported as 2 fold.
Compound O=c1cc(COC2CCCCO2)occ1OCCCCCn1ccc2ccc(Cl)cc21 (centres unmarked) [EHT 8617, 5-[5-(6-Chloro-indol-1-yl)-pentyloxy]-2-(tetrahydro-pyran-2-yloxymethyl)-4H-pyran-4-one] has an IC50 (HCT116) of 1.5 to 4 µM.
In the case of O=c1cc(CO)occ1OCCCCCN1CCc2ccccc21 [EHT 8650, 5-[5-(2,3-Dihydro-indol-1-yl)-pentyloxy]-2-hydroxymethyl-4H-pyran-4-one], the IC50 (HCT116) is reported as > 100 µM.
